Legend:
[1] = test system: HT-29 human colon cancer cells; experiment: HT-29 colon tumour xenograft in nude mice, combination with CPT-11 (1.2); format: in vivo, human cells in mice; conditions: HT-29 (colon), CD-1; SEQ ID NO:1 10 mg/kg i.v. every other day; CPT-11 20 mg/kg i.p. days 7-12
From the text: All treatments were stopped at day 22. […] All treatments were stopped at day 32. […] All treatments were stopped at day 36.

[2] = test system: LS513 multi-drug resistant colon carcinoma cells; experiment: LS513 multi-drug resistant colon carcinoma xenograft in SCID mice, combination with CPT-11 (2.8); format: in vivo, human cells in mice; conditions: LS513 (colon) multi-drug resistant (CPT-11 sensitive), SCID; SEQ ID NO:1 10 mg/kg i.v. every other day; CPT-11 20 mg/kg/day i.p. 5 days
Experimental: (§1) BxPC-3 is a gemcitabine resistant call line. […] Gemcitabine was administered intravenously every three days at a dose of 100 mg/kg. Antitumour activities were estimated by the inhibition of tumour volume, which was measured with caliper. Each point represents mean tumour volume calculated from 10 animals per experimental group. […] Hela S3 is a hydroxyurea resistant cell line. […] Hydroxyurea was administered intraperitoneally every day at a dose of 250 mg/kg for 10 days. Cisplatin was administered intravenously once a week for three weeks at a dose of 4 mg/kg. Antitumour activities were estimated by the inhibition of tumour volume, which was measured with caliper. Each point represents mean tumour volume calculated from 10 animals per experimental group. […] Cisplatin was administered intravenously once a week for three weeks at a dose of 4 mg/kg. Taxol was administered intravenously once a week for three weeks at a dose of 10 mg/kg. Antitumour activities were estimated by the inhibition of tumour volume, which was measured with caliper. Each point represents mean tumour volume calculated from 10 animals per experimental group. […] Taxol was administered i.p. once a week at a dose of 10 mg/kg. Antitumour activities were estimated by the inhibition of tumour volume (FIG. 12A), which was measured with calipers. Each point represents mean tumour volume calculated from 10 animals per experimental group. […] Antitumour activities were estimated by the inhibition of tumour volume, which was measured with caliper. Each point represents mean tumour volume calculated from 9-10 animals per experimental group. […] Antitumour activities were estimated by the inhibition of tumour volume, which was measured with caliper. Each point represents mean tumour volume calculated from 10 animals per experimental group. […] Anti-tumour activity was estimated by the inhibition of tumour volume, which was measured with caliper. Each point represents mean tumour volume calculated from 10 animals per experimental group. […] Antitumour activities were estimated by the inhibition of tumour volume, which was measured with caliper. […]

[3] = test system: MDA-MB435-To.1 human Taxol-resistant breast adenocarcinoma cells; experiment: MDA-MB435-To.1 Taxol-resistant breast adenocarcinoma, fat pad, SCID mice (2.5); format: in vivo, human cells in mice; conditions: MDA-MB435-To.1 (breast), Taxol resistant, SCID; SEQ ID NO:1 10 mg/kg i.v. every other day 15 times; Taxol 20 mg/kg, Cisplatin 4 mg/kg i.v. weekly x4
Experimental: (§2) BxPC-3 is a gemcitabine resistant call line. […] Gemcitabine was administered intravenously every three days at a dose of 100 mg/kg. Antitumour activities were estimated by the inhibition of tumour volume, which was measured with caliper. Each point represents mean tumour volume calculated from 10 animals per experimental group. […] Hela S3 is a hydroxyurea resistant cell line. […] Hydroxyurea was administered intraperitoneally every day at a dose of 250 mg/kg for 10 days. Cisplatin was administered intravenously once a week for three weeks at a dose of 4 mg/kg. Antitumour activities were estimated by the inhibition of tumour volume, which was measured with caliper. Each point represents mean tumour volume calculated from 10 animals per experimental group. […] Cisplatin was administered intravenously once a week for three weeks at a dose of 4 mg/kg. Taxol was administered intravenously once a week for three weeks at a dose of 10 mg/kg. Antitumour activities were estimated by the inhibition of tumour volume, which was measured with caliper. Each point represents mean tumour volume calculated from 10 animals per experimental group. […] Taxol was administered i.p. once a week at a dose of 10 mg/kg. Antitumour activities were estimated by the inhibition of tumour volume (FIG. 12A), which was measured with calipers. Each point represents mean tumour volume calculated from 10 animals per experimental group. Animals were sacrificed and tumour weights taken at the end of the study (FIG. 12C). […] Cisplatin was administered intravenously once a week for four weeks at a dose of 4 mg/kg. Taxol was administered intravenously once a week for four weeks at a dose of 20 mg/kg. Antitumour activities were estimated by the inhibition of tumour volume, which was measured with caliper. Each point represents mean tumour volume calculated from 9-10 animals per experimental group. […] Cisplatin was administered intravenously once a week for four weeks at a dose of 4 mg/kg. Antitumour activities were estimated by the inhibition of tumour volume, which was measured with caliper. Each point represents mean tumour volume calculated from 10 animals per experimental group. At the end of the study the animals were sacrificed and tumours weighed. […] Taxol was administered i.p. once a week at a dose of 10 mg/kg. Anti-tumour activity was estimated by the inhibition of tumour volume, which was measured with caliper. Each point represents mean tumour volume calculated from 10 animals per experimental group. In addition animals were sacrificed and tumour weights taken at the end of the study. […] CPT-11 was administered i.p. for 5 days at a dose of 20 mg/kg/day. Antitumour activities were estimated by the inhibition of tumour volume, which was measured with caliper. Each point represents mean tumour volume calculated from 10 animals per experimental group. Tumour weights were measured after animals were sacrificed at the end of the treatment. These cells are not resistant to CPT-11 which was used as a positive control.

[4] = test system: MDA-MB435-To.1 human Taxol-resistant breast adenocarcinoma cells; experiment: MDA-MB435-To.1 Taxol-resistant breast adenocarcinoma, fat pad, CB-17 SCID mice, combination with Cisplatin (2.6); format: in vivo, human cells in mice; conditions: MDA-MB435-To.1 (breast), Taxol resistant, CB-17/SCID; SEQ ID NO:1 10 mg/kg i.v. every other day; Cisplatin 4 mg/kg i.v. weekly x4
Experimental: as §1

[5] = test system: MDA-CDDP-S4 human in vivo-selected Cisplatin-resistant breast adenocarcinoma cells; experiment: MDA-CDDP-S4 Cisplatin-resistant breast adenocarcinoma, fat pad, SCID mice (2.3); set-up: species or system human cells in mice
Experimental: as §2

[6] = test system: SK-OV-3 human ovary adenocarcinoma cells; experiment: SK-OV-3 ovary tumour xenograft in CD-1 nude mice, combination with taxol or cisplatin (1.8); format: in vivo, human cells in mice; conditions: SK-OV-3 (ovary), CD-1; SEQ ID NO:1 10 mg/kg i.v. every other day 17 times; Taxol 10 mg/kg weekly; Cisplatin 4 mg/kg weekly
Experimental: After 52 days the mice were sacrificed and the tumours weighed. […] Mitoxantrone was administered intravenously once at the beginning of the treatments at a dose of 2 mg/kg (FIG. 4A) or once a week for four weeks at a reduced dose of 0.8 mg/kg (FIG. 4B). All treatments were stopped at day 50 (FIG. 4A) or 48 (FIG. 4B), respectively. […] Mitoxantrone was administered intravenously once at the beginning of the treatments at a dose of 2 mg/kg (FIG. 5A) or once a week for four weeks at a reduced dose of 0.8 mg/kg (FIG. 5B). All treatments were stopped at day 42 (FIG. 5A) or 38 (FIG. 5B), respectively. […] A2058 is a metastatic melanoma cell line. […] All treatments were stopped at day 24. […] Taxol was administered intravenously once a week at a dose of 10 mg/kg for three (FIG. 7A) or four weeks (FIG. 7C). Doxorubicin was administered intravenously once a week at a dose of 5 mg/kg for first three weeks (FIG. 7A) or for two weeks (FIG. 7C). All treatments were stopped at day 33 (FIG. 7A) or at day 26 (FIG. 7C), respectively. […] In FIG. 7C, antitumour activities were estimated by the inhibition of tumour volume, which was measured with calipers. Each point represents mean tumour volume calculated from 10 animals per experimental group. […] Taxol was administered intravenously once a week for first three weeks and intraperitoneally once a week for next two weeks at a dose of 10 mg/kg. Cisplatin was administered intravenously once a week for first three weeks and intraperitoneally once a week for next two weeks at a dose of 4 mg/kg. All treatments were stopped at day 40. Antitumour activities were estimated by the inhibition of tumour volume, which was measured with caliper. Each point represents mean tumour volume calculated from 9 animals per experimental group.

[7] = test system: Hela S3 human cervix epitheloid carcinoma cells; experiment: Hela S3 hydroxyurea resistant cervix carcinoma xenograft in SCID mice; format: in vivo, human cells in mice; conditions: Hela S3 (cervix), hydroxyurea resistant, SCID; SEQ ID NO:1 10 mg/kg i.v. every other day 6 times; Hydroxyurea 250 mg/kg i.p. daily 10 days; Cisplatin 4 mg/kg i.v. weekly x3
Experimental: as §2, with “12C). […] The effects of combined treatment were greater than either treatment alone.” for “12C).”

## CCc1c2c(nc3ccc(OC(=O)N4CCC(N5CCCCC5)CC4)cc13)-c1cc3c(c(=O)n1C2)COC(=O)[C@]3(O)CC [CPT-11, irinotecan, reference compound]
[1]
  Tumour weight as % of saline control: 36%
[2]
  Tumour weight as % of saline control: 47%

## N.N.[Cl][Pt][Cl] [Cisplatin, reference compound]
[3]
  Tumour weight as % of saline control: 69%
[4]
  Tumour weight as % of saline control: 56%
[5]; MDA-CDDP-S4 (breast), Cisplatin resistant, SCID, SEQ ID NO:1 10 mg/kg i.v. every other day 9 times, Taxol 10 mg/kg, Cisplatin 4 mg/kg i.v. weekly x3
  Tumour weight as % of saline control: 78%
[5]; MDA-CDDP-S4 Cisplatin-resistant, SCID mice, SEQ ID NO:1 10 mg/kg i.v. every other day, Cisplatin 4 mg/kg, Taxol 10 mg/kg i.v. weekly
  Antitumour effect (FIG. 11): ineffective against Cisplatin-resistant tumour
[6]
  tumour volume data as percentage of saline control: 67%
[7]
  Tumour weight as % of saline control: 63%
